# Biological target: MAPK14 (human) (UniProt Q16539)
# Test: Inhibition of MAPK14 Kinase Activity
# MAPK14 (human), sequence (Q16539 whole entry, looked up): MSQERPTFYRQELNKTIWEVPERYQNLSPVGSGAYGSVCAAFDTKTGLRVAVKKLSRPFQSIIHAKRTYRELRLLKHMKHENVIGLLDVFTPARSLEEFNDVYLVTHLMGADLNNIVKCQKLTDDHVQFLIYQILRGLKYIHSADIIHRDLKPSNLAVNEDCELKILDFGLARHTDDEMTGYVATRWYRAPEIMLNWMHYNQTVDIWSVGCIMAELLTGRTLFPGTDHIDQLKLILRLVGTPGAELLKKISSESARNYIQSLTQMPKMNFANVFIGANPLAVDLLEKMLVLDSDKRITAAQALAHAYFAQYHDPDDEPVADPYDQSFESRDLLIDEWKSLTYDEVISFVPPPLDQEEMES
row,SMILES,IC50
1,CC(=O)Nc1sc2c(ccc(=O)n2-c2ccccc2Cl)c1C(=O)c1ccccc1,< 2 µM
2,CC(=O)Nc1sc2c(ccc(=O)n2-c2ccccc2)c1C(=O)c1cccc(C(F)(F)F)c1,< 2 µM
3,Cc1ccc(-n2c(=O)ccc3c(C(=O)c4ccc(F)c(C)c4)c(NC4CN(C)C4)sc32)cc1,< 2 µM
4,CN1CCC(Nc2sc3c(ccc(=O)n3-c3ccc(F)cc3)c2C(=O)c2ccccc2)CC1,< 2 µM
5,Cc1cccc(C(=O)c2c(NC(=O)NNS(C)(=O)=O)sc3c2ccc(=O)n3-c2ccccc2)c1,< 2 µM
6,Cc1cc(C(=O)c2c(N[C@H]3CCNC3)sc3c2ccc(=O)n3-c2ccccc2)ccc1F,< 2 µM
7,CC(=O)Nc1sc2c(ccc(=O)n2-c2ccccc2)c1C(=O)c1ccccc1,< 2 µM
8,Cc1ccc(-n2c(=O)ccc3c(C(=O)c4ccccc4)c(NC4CNC4)sc32)cc1,< 2 µM
9,O=C(c1ccccc1)c1c(NCCN2CCCCC2)sc2c1ccc(=O)n2-c1ccccc1,< 2 µM
10,CN1CC[C@@H](Nc2sc3c(ccc(=O)n3-c3ccccc3)c2C(=O)c2ccccc2)C1,< 2 µM
11,CN1CCC[C@@H](Nc2sc3c(ccc(=O)n3-c3ccccc3)c2C(=O)c2ccccc2)C1,< 2 µM
12,Nc1sc2c(ccc(=O)n2-c2ccccc2)c1C(=O)c1nccs1,< 2 µM
13,Cc1cc(C(=O)c2c(NC(=O)N3CC[C@@H](N(C)C)C3)sc3c2ccc(=O)n3-c2ccccc2)ccc1F,< 2 µM
14,Cc1cccc(C(=O)c2c(NC(=O)N3CCC[C@@H]3CO)sc3c2ccc(=O)n3-c2ccccc2)c1,< 2 µM
15,Cc1cccc(C(=O)c2c(NC(=O)N3CCC3)sc3c2ccc(=O)n3-c2ccccc2)c1,< 2 µM
16,CC(=O)Nc1sc2c(ccc(=O)n2-c2ccccc2)c1C(=O)c1ccc(F)cc1,< 2 µM
17,CCN1CCC(Nc2sc3c(ccc(=O)n3-c3ccccc3)c2C(=O)c2ccccc2)CC1,< 2 µM
18,CC(=O)Nc1sc2c(ccc(=O)n2-c2ccccc2)c1C(=O)c1cccc(OC(F)F)c1,< 2 µM
19,Cc1cccc(C(=O)c2c(N[C@H]3CCN(C)C3)sc3c2ccc(=O)n3-c2ccccc2)c1,< 2 µM
20,CCN1CCC(NC(=O)Nc2sc3c(ccc(=O)n3-c3ccccc3)c2C(=O)c2cccc(C)c2)C1 (stereo not drawn),< 2 µM
21,Cc1cc(C(=O)c2c(NC3CNC3)sc3c2ccc(=O)n3-c2c(F)cccc2F)ccc1F,< 2 µM

# Continued, values first:
row,IC50,SMILES
1,< 2 µM,O=C(c1ccccc1)c1c(N[C@H]2CCNC2)sc2c1ccc(=O)n2-c1ccccc1
2,< 2 µM,O=C(c1ccccc1)c1c(N[C@H]2CCCNC2)sc2c1ccc(=O)n2-c1ccccc1
3,< 2 µM,Cc1cc(C(=O)c2c(NC(=O)N3CC[C@H](N(C)C)C3)sc3c2ccc(=O)n3-c2ccccc2)ccc1F
4,< 2 µM,CN1CC[C@@H](NC(=O)Nc2sc3c(ccc(=O)n3-c3ccccc3)c2C(=O)c2ccccc2)C1
5,< 2 µM,Cc1cccc(C(=O)c2c(N)sc3c2ccc(=O)n3-c2ccccc2)c1
6,< 2 µM,Nc1sc2c(ccc(=O)n2-c2ccccc2)c1C(=O)c1ccc(F)c(Cl)c1
7,< 2 µM,CC(=O)Nc1sc2c(ccc(=O)n2-c2ccccc2)c1C(=O)c1ccc(C)cc1
8,< 2 µM,CN1CCC[C@@H]1C(=O)Nc1sc2c(ccc(=O)n2-c2ccccc2)c1C(=O)c1ccccc1
9,< 2 µM,O=C(O)c1sc2c(ccc(=O)n2-c2ccccc2)c1C(=O)c1ccccc1
10,< 2 µM,Cc1cc(C(=O)c2c(N)sc3c2ccc(=O)n3-c2c(F)cccc2F)ccc1F
11,< 2 µM,CN(C)C(=O)Nc1sc2c(ccc(=O)n2-c2ccccc2)c1C(=O)c1ccccc1
12,< 2 µM,NC1CCN(c2sc3c(ccc(=O)n3-c3ccccc3)c2C(=O)c2ccccc2)CC1
13,< 2 µM,N[C@@H]1CCN(C(=O)Nc2sc3c(ccc(=O)n3-c3ccccc3)c2C(=O)c2ccccc2)C1
14,< 2 µM,CN1CCC(C(=O)Nc2sc3c(ccc(=O)n3-c3ccccc3)c2C(=O)c2ccccc2)CC1
15,< 2 µM,Cc1cc(C(=O)c2c(NC(=O)NC(C)(C)CO)sc3c2ccc(=O)n3-c2ccccc2Cl)ccc1F
16,< 2 µM,Cc1cccc(C(=O)c2c(NC3CNC3)sc3c2ccc(=O)n3-c2ccccc2)c1
17,< 2 µM,Nc1sc2c(ccc(=O)n2-c2ccccc2)c1C(=O)c1ccc(Cl)cc1
